Results: PMC7925099, “Identification of an Antiretroviral Small Molecule That Appears To Be a Host-Targeting Inhibitor of HIV-1 Assembly” (Journal of Virology, 2021)
Where two headings read alike, the source gives them in different places.

How the values were obtained:
[1] = tested on: HIV-1 NL4-3 RLuc; assay: MT-2 spreading infection assay (inhibition of HIV-1 replication); conditions: for SI (CC50/EC50): from average values
Description: Inhibition of HIV-1 viral replication was assayed in a spreading infection using MT-2 cells and NL4-3 RLuc reporter virus. For dose-response curves, compounds were initially diluted with DMSO to 100-fold the starting concentration in a 96-well plate and subjected to a series of 3-fold dilutions in DMSO for a total of eight or nine dilutions. If a single compound concentration was tested, the compound was diluted to 100-fold the desired concentration in DMSO. Compounds were then diluted 50-fold with infection media prepared by diluting NL4-3 RLuc virus stock to 400 IU/100 μl with complete RPMI. Then, 100 μl of 50-fold-diluted compound was transferred to 20,000 MT-2 cells that were preseeded in 96-well plates in 100 μl of complete RPMI for a final volume of 200 μl, followed by incubation at 37°C for 96 h. The final MOI in infected plates was 0.02, and the final DMSO concentration in all wells was 1%. All assays were run with three replicates. For each replicate, one well received DMSO only, and one well received medium only for normalization and background correction. […] Plates were read on a luminescence plate reader (Synergy H1; BioTek Instruments, Inc.).
(§3) EC50 and CC50 values were determined in Excel using four-parameter logistic regression analysis of dose-response data generated from the viral inhibition or cytotoxicity assays, respectively. […] Average EC50 and CC50 values were calculated using the geometric mean and average values were reported with the geometric standard deviation (GSD).

[2] = in vitro; conditions: human
Description: (§4) For each viral inhibition assay, a cytotoxicity assay was performed in parallel on uninfected cells by adding 1/10 volume of alamarBlue (Thermo Fisher, Waltham, MA; DAL1199) to the plates, followed by thorough mixing. AlamarBlue-treated plates were incubated for 2 to 3 h at 37°C (the timing was optimized for the linear signal), mixed well, and read using a fluorescence plate reader with 560 nm and 590 nm as the excitation and emission settings, respectively (Synergy H1; BioTek Instruments, Inc.).
as §3

[3] = tested on: DDX6 and XRN1; assay: DDX6-XRN1 proximity ligation assay in compound-treated cells; assay type: cell-based, human; conditions: 10 μM; 16 h; 293T-HIV
Description: (§1) For each treatment, one-half of a Grace Biolabs Culture Well silicone chamber (Millipore-Sigma; GBL103380) was attached to a cover glass (Carl Zeiss, Oberkochen, Germany; catalog no. 474030-9000-000) to create four chambers on the cover glass. Each chambered cover glass was placed into a well of a 6-well plate, and the chambers were coated with poly-L-lysine and allowed to dry overnight. The next day, ∼4 × 10^3 293T/17 or 293T-HIV cells were seeded into each chamber, followed by incubation at 37°C for 5 to 6 h. After the cells adhered, they were treated with compound or DMSO. […] For quantification, 5 to 10 fields, each containing at least three IF-positive cells, were chosen at random and imaged using identical exposure times for each channel (100 to 150 ms for the PLA channel in red; 0.5 to 1 s for the IF channel in green, depending on the IF primary antibody; and 20 ms for the DAPI channel in blue). […] The ROIs identified in the IF channel were applied to a maximum intensity z projection of the PLA channel, and PLA spots within the ROI were counted using the find maxima function in Fiji, with noise threshold optimized to identify only PLA spots. Nuclei from each field were counted manually to determine the number of cells. […]

[4] = tested on: HIV-1 Gag; assay: Biotin-Gag proximity ligation assay; assay type: cell-based; conditions: for biotin-Gag PLA spots/cell: 16 h
Description: (§2) For each treatment, one-half of a Grace Biolabs Culture Well silicone chamber (Millipore-Sigma; GBL103380) was attached to a cover glass (Carl Zeiss, Oberkochen, Germany; catalog no. 474030-9000-000) to create four chambers on the cover glass. Each chambered cover glass was placed into a well of a 6-well plate, and the chambers were coated with poly-L-lysine and allowed to dry overnight. The next day, ∼4 × 10^3 293T/17 or 293T-HIV cells were seeded into each chamber, followed by incubation at 37°C for 5 to 6 h. After the cells adhered, they were treated with compound or DMSO. At 16 h posttreatment, the cells were fixed for 15 min in 4% paraformaldehyde in PBS (pH 7.4), permeabilized in 0.5% (wt/vol) saponin in PBS (pH 7.4) for 10 min, and blocked in Duolink blocking solution (Millipore-Sigma) at 37°C for 30 min. The cells were incubated in primary antibodies using the following concentrations: for the Gag-biotin PLA, mouse αGag p24 was used at 0.2 μg/ml, and rabbit αbiotin was used at 4 μg/ml; for the biotin-ABCE1 PLA, rabbit αABCE1 was used at 0.3 μg/ml, and mouse αbiotin was used at 0.7 μg/ml; for the biotin-DDX6 PLA, rabbit αDDX6 was used at 0.5 μg/ml and mouse αbiotin was used at 0.3 μg/ml; for the ABCE1-DDX6 PLA, rabbit αABCE1 was used at 0.3 μg/ml, and mouse αDDX6 was used at 0.3 μg/ml; for the biotin-G3BP1 PLA, rabbit αG3BP1 was used at 0.025 μg/ml, and mouse αbiotin was used at 0.2 μg/ml; for the TIAR-G3BP1 PLA, rabbit αG3BP1 was used at 0.025 μg/ml, and mouse αTIAR was used at 0.025 μg/ml; for the biotin-XRN1 PLA, rabbit α XRN1 was used at 0.5 μg/ml, and mouse αbiotin was used at 0.2 μg/ml; and for the DDX6-XRN1 PLA, rabbit αXRN1 was used at 0.5 μg/ml, and mouse αDDX6 was used at 0.5 μg/ml. For the NI control PLA experiments, NI control antibodies from the relevant species were used at the same concentration as the primary antibody they replaced. Primary incubation was followed by incubation with Duolink reagents (Millipore-Sigma): oligonucleotide-linked secondary antibody, ligation mix, and red amplification/detection mix, with washes in between, in accordance with the Duolink protocol. For concurrent IF analysis following the final 1× PLA buffer B washes, cells were incubated for 30 min at room temperature with 1:1,000 Alexa Fluor 488-anti-mouse secondary antibody. Cover glasses were mounted using Duolink in situ mounting medium with DAPI (4′,6′-diamidino-2-phenylindole; Millipore-Sigma), sealed to the glass slides with clear nail polish, allowed to dry for 24 h at room temperature, and stored at −20°C. Imaging was performed with a Zeiss Axio Observer.Z1/7 deconvolution microscope using Zeiss Plan-Apochromat 63×/aperture 1.4 objective with oil immersion, with Zen 2.6 (blue edition) software. For quantification, 5 to 10 fields, each containing at least three IF-positive cells, were chosen at random and imaged using identical exposure times for each channel (100 to 150 ms for the PLA channel in red; 0.5 to 1 s for the IF channel in green, depending on the IF primary antibody; and 20 ms for the DAPI channel in blue). Images were captured as a Z-stack of 80 to 90 0.24-μm slices that included the entire cell body and 5 μm above and below the cell (∼20 μm total). To determine the number of PLA spots per cell, image stacks were processed as follows in Fiji ([96]). First, an in-focus slice from the IF channel was selected using the Find Focused Slices plugin within ImageJ (Q. Tseng, 2020 [https://sites.google.com/site/qingzongtseng/find-focus]), and thresholding was used to generate regions of interest (ROI) that contained only cells. The ROIs identified in the IF channel were applied to a maximum intensity z projection of the PLA channel, and PLA spots within the ROI were counted using the find maxima function in Fiji, with noise threshold optimized to identify only PLA spots. Nuclei from each field were counted manually to determine the number of cells. […]

[5] = target: T1, G3BP1 (Homo sapiens, UniProt Q13283); assay: Biotin-G3BP1 proximity ligation assay; assay type: cell-based; conditions: 293T-HIV; for PLA spots/cell (biotin-G3BP1 PLA): 10 μM, 16 h
T1 construct: endogenous in cells; host or cells: 293T-HIV cells
T1 sequence (Q13283 whole entry): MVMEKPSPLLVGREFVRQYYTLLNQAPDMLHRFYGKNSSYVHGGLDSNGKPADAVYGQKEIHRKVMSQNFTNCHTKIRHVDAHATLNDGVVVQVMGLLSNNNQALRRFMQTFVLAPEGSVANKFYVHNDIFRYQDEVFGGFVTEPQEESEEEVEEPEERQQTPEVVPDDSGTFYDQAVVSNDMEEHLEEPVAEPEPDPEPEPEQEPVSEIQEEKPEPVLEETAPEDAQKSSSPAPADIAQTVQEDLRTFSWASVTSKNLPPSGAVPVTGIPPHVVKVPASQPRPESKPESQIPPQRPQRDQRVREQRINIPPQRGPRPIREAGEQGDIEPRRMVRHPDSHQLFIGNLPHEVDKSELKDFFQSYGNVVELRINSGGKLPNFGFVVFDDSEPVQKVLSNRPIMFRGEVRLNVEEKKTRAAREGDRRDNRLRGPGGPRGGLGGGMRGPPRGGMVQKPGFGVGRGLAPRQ
Description: as §1, with “DMSO. At 16 h posttreatment, the cells were fixed for 15 min in 4% paraformaldehyde in PBS (pH 7.4), permeabilized in 0.5% (wt/vol) saponin in PBS (pH 7.4) for 10 min, and blocked in Duolink blocking solution (Millipore-Sigma) at 37°C for 30 min.” for “DMSO.”

[6] = tested on: TIAR and G3BP1; assay: TIAR-G3BP1 proximity ligation assay in compound-treated cells; assay type: cell-based, human; conditions: 10 μM; 16 h; 293T-HIV
Description: as §1

[7] = target: T2, ABCE1 (Homo sapiens, UniProt P61221); assay: Biotin-ABCE1 proximity ligation assay; assay type: cell-based; conditions: for biotin-ABCE1 PLA spots/cell: 16 h
T2 construct: endogenous in cells; host or cells: 293T/17 and 293T-HIV cells
Description: as §2

[8] = target: T3, XRN1 (Homo sapiens, UniProt Q8IZH2); assay: Biotin-XRN1 proximity ligation assay; assay type: cell-based; conditions: 293T-HIV; for PLA spots/cell (biotin-XRN1 PLA): 10 μM, 16 h
T3 construct: endogenous in cells; host or cells: 293T-HIV cells
T3 sequence (Q8IZH2 whole entry): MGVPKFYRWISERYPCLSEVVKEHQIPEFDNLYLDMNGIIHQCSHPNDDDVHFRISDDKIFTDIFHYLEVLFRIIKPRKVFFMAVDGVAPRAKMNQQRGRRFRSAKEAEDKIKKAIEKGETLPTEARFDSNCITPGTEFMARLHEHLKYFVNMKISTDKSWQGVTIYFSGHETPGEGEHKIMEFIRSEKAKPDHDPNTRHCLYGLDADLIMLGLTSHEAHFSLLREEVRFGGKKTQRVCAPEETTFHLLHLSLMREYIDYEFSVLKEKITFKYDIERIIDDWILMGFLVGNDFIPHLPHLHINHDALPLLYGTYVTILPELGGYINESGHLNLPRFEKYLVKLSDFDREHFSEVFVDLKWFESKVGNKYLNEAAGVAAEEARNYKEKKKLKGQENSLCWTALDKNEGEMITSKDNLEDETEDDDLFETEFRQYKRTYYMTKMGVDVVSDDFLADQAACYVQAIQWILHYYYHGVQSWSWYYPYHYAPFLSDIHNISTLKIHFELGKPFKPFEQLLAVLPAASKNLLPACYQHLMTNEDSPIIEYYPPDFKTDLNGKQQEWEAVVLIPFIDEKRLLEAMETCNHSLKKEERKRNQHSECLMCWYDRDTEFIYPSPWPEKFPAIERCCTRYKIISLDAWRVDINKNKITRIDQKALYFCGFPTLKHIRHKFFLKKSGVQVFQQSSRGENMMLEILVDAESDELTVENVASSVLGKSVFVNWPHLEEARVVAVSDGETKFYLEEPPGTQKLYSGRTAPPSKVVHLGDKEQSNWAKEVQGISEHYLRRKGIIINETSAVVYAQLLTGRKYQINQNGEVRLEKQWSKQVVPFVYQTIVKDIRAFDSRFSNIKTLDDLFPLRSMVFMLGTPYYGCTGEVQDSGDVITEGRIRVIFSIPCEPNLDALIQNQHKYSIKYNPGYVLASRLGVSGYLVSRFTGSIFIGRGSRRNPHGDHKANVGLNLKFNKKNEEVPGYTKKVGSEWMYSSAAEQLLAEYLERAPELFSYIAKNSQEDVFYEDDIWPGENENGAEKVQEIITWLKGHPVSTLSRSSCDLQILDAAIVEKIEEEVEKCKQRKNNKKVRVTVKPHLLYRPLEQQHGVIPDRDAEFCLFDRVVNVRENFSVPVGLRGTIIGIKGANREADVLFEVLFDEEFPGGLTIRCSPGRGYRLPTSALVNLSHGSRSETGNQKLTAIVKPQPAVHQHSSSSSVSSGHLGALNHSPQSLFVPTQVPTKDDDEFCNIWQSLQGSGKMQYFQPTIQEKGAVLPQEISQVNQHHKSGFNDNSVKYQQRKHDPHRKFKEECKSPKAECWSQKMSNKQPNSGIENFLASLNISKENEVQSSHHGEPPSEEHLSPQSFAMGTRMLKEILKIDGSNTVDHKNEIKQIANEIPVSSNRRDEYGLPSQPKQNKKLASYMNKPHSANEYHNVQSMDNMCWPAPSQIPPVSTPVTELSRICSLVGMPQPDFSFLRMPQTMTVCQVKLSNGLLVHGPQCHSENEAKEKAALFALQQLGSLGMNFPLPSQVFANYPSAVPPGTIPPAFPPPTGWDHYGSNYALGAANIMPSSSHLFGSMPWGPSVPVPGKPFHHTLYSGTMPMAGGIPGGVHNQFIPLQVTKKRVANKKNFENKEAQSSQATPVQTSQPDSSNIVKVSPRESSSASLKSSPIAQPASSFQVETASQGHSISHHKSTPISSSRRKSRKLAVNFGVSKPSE
Description: as §1, with “DMSO. At 16 h posttreatment, the cells were fixed for 15 min in 4% paraformaldehyde in PBS (pH 7.4), permeabilized in 0.5% (wt/vol) saponin in PBS (pH 7.4) for 10 min, and blocked in Duolink blocking solution (Millipore-Sigma) at 37°C for 30 min.” for “DMSO.”

[9] = target: T4, DDX6 (Homo sapiens, UniProt P26196); assay: Biotin-DDX6 proximity ligation assay; assay type: cell-based; conditions: for biotin-DDX6 PLA spots/cell: 16 h
T4 construct: endogenous in cells; host or cells: 293T/17 and 293T-HIV cells
T4 sequence (P26196 1-483): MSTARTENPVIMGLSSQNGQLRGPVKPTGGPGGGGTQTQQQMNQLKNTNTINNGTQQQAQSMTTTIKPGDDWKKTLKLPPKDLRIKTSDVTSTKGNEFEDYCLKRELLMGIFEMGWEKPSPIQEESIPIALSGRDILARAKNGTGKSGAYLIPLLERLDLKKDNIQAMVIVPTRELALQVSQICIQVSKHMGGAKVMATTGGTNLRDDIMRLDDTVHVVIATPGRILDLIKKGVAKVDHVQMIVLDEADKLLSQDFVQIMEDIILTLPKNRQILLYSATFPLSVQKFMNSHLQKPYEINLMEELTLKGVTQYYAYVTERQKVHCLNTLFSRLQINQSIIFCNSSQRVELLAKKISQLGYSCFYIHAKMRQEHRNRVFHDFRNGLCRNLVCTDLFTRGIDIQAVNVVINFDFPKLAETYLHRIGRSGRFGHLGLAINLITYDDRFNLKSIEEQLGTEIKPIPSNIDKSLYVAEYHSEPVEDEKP
Description: as §2

[10] = tested on: HIV-1 NL4-3; assay type: cell-based; conditions: MT-2 cells, 37 weeks of selection
[11] = tested on: MT-2 cells
Description: as §4, §3

[12] = Human immunodeficiency virus 1, NL43, MT2

COc1cc2c(cc1OCc1ccccc1)CCNC2/C=C/c1ccccc1 (centres unmarked) [PAV-492]
EC50 [1, 12]: 1.54 µM
SI (CC50/EC50) ([1]; MT-2 cells): > 6
CC50 ([2]; CC50 (μM)): > 10 µM

COc1cc2c(cc1OCc1ccccc1)CCNC2/C=C/c1ccccc1C (centres unmarked) [PAV-245]
EC50 [1, 12]: 0.755 µM
SI (CC50/EC50) ([1]; MT-2 cells): 4.8
CC50 ([2]; CC50 (μM)): 3.6 µM

COc1cc(C)c(C=CC2NCCc3cc(OCc4ccccc4)c(OC)cc32)cc1OCCCCNC(=O)C(CC1(C)N=N1)NC(=O)CCOCCOCCNC(=O)CCCCC1SCC2NC(=O)NC21 (centres unmarked) [PAV-818]
PLA spots/cell (DDX6-XRN1 PLA) [3]: 35.2
biotin-Gag PLA spots/cell ([4]; 5 μM, 293T-HIV (HIV +)): 32.6
biotin-Gag PLA spots/cell ([4]; 10 μM, 293T-HIV (HIV +)): 51.5
biotin-Gag PLA spots/cell ([4]; 10 μM, uninfected 293T (HIV −)): 7.1
biotin-Gag PLA spots/cell ([4]; 20 μM, 293T-HIV (HIV +)): 111.8
fold more biotin-Gag PLA spots than with PAV-543 ([4]; both at 10 μM, 293T-HIV): 5.5 fold
PLA spots/cell (biotin-G3BP1 PLA) [5]: 6.3
colocalization with the stress granule protein G3BP1 ([5]; PLA): does not colocalize
EC50 ([1]; Human immunodeficiency virus 1, NL43, T-cell, 96 h, read-out: EC50 for inhibition of HIV-1 replication): 0.951 µM
selectivity index (CC50/EC50) ([1]; MT-2 cells, from the shown dose-response curve): ~32
PLA spots/cell (TIAR-G3BP1 PLA) [6]: 35.0
biotin-ABCE1 PLA spots/cell ([7]; 5 μM, 293T-HIV (HIV +)): 42.0
biotin-ABCE1 PLA spots/cell ([7]; 10 μM, 293T-HIV (HIV +)): 64.2
biotin-ABCE1 PLA spots/cell ([7]; 10 μM, uninfected 293T (HIV −)): 72.9
biotin-ABCE1 PLA spots/cell ([7]; 20 μM, 293T-HIV (HIV +)): 104.7
fold more biotin-ABCE1 PLA spots than with PAV-543 ([7]; both at 10 μM, 293T-HIV): 14.3 fold
CC50 ([2]; CC50): ~30 µM
PLA spots/cell (biotin-XRN1 PLA) [8]: 5.3
colocalization with the P-body marker XRN1 ([8]; PLA): does not colocalize
biotin-DDX6 PLA spots/cell ([9]; 5 μM, 293T-HIV (HIV +)): 47.4
biotin-DDX6 PLA spots/cell ([9]; 10 μM, 293T-HIV (HIV +)): 65.1
biotin-DDX6 PLA spots/cell ([9]; 10 μM, uninfected 293T (HIV −)): 58.0
biotin-DDX6 PLA spots/cell ([9]; 20 μM, 293T-HIV (HIV +)): 82.9
fold more biotin-DDX6 PLA spots than in PAV-543-treated or DMSO-treated cells ([9]; 293T-HIV): ~5.1 fold

Cc1c(O)cccc1C(=O)N[C@@H](CSc1ccccc1)[C@H](O)CN1C[C@H]2CCCC[C@H]2C[C@H]1C(=O)NC(C)(C)C [nelfinavir, reference compound]
resistance level reached: compound concentration allowing virus replication, fold higher than the EC50 [10]: 16 fold

COc1ccc(/C=C/C2NCCc3cc(OCc4ccccc4)c(OC)cc32)cc1OCc1ccccc1 (centres unmarked) [PAV-220]
EC50 [1, 12]: 0.163 µM
SI (CC50/EC50) ([1]; MT-2 cells): 23
CC50 ([2]; CC50 (μM)): 3.8 µM

COc1ccc(/C=C/C2NCCc3cc(OCc4ccccc4)c(OC)cc32)cc1 (centres unmarked) [PAV-493]
SI (CC50/EC50) ([1]; MT-2 cells): 37
CC50 ([2]; CC50 (μM)): 21 µM

COc1ccc(/C=C/C2NCCc3cc(OCc4ccccc4)c(OC)cc32)c(C)c1 (centres unmarked) [PAV-218]
CC50 (μM) [11]: 9.7 ×/÷ 1.2 μM
SI (CC50/EC50) ([1]; MT-2 cells): 66

N#CCC(NC(=O)CCOCCOCCNC(=O)CCCC[C@@H]1SCC2NC(=O)NC21)C(=O)NCCCCOc1ccccc1 (some centres unmarked) [PAV-543, reference compound]
PLA spots/cell (DDX6-XRN1 PLA) [3]: 77.4
biotin-Gag PLA spots/cell ([4]; 10 μM, 293T-HIV (HIV +)): 9.3
PLA spots/cell (biotin-G3BP1 PLA) [5]: 1.6
EC50 ([1]; Human immunodeficiency virus 1, NL43, T-cell, read-out: EC50MT-2): > 100 µM
PLA spots/cell (TIAR-G3BP1 PLA) [6]: 51.5
biotin-ABCE1 PLA spots/cell ([7]; 10 μM, 293T-HIV (HIV +)): 4.5
CC50 ([2]; CC50): > 100 µM
PLA spots/cell (biotin-XRN1 PLA) [8]: 3.8
biotin-DDX6 PLA spots/cell ([9]; 10 μM, 293T-HIV (HIV +)): 12.6

COc1cc2c(cc1OCc1ccccc1)CCNC2/C=C/c1cccc(OCc2ccccc2)c1 (centres unmarked) [PAV-494]
EC50 [1, 12]: 0.244 µM
SI (CC50/EC50) ([1]; MT-2 cells): 17
CC50 ([2]; CC50 (μM)): 4.1 µM
